# Laboratory results: EPA's ToxValDB 9.5 (doi:10.2903/j.efsa.2005.33ar)
# Experiments:
# Landoltia sp. = conditions: chronic/long-term; biomass
# Oryctolagus sp. = conditions: reproduction developmental; body weight
# Rattus norvegicus = conditions: for NOAEL: reproduction developmental
# Daphnia magna = conditions: chronic/long-term; duration: 21 days; mobility
# Apis mellifera = conditions: acute, dermal, mortality
# Bird = conditions: acute; oral; unspecified; mortality
# Bibionidae = conditions: chronic/long-term; duration: 26 days
# Canidae = conditions: chronic; duration: 1 years; Dog Other; body weight
# Aphidius rhopalosiphi = conditions: not reported; mortality
smiles,measurement,setting,value
CC1(C)CC/C(=C\c2ccc(Cl)cc2)C1(O)Cn1cncn1 (stereo not drawn) [Triticonazole],NOEC,Landoltia sp.,0.33 mg/L
same,LD50,"Colinus virginianus; acute, oral, diet, mortality",> 693 mg/kg
same,NOAEL,Colinus virginianus; reproduction developmental,19.5 mg/kg-day
same,NOAEL,Oryctolagus sp.,5 mg/kg-day
same,LC50,"Tagia sp.; acute, duration: 14 days, mortality",> 1000 mg/kg
same,NOEC,"Tagia sp.; chronic/long-term, duration: 56 days, reproduction",500 mg/kg
same,LD50,"Rattus norvegicus; acute, mortality",> 2000 mg/kg
same,NOAEL,Rattus norvegicus; F,48 mg/kg-day
same,NOAEL,Rattus norvegicus; M,49 mg/kg-day
same,NOEC,Daphnia magna,0.092 mg/L
same,LD50,Apis mellifera,> 156 µg/piece
same,LD50,Apis mellifera; duration: 48 hours,> 100 µg/piece
same,LC50,"Oncorhynchus mykiss; acute, duration: 96 hours, mortality",> 3.6 µg/mL
same,NOEC,"Oncorhynchus mykiss; chronic/long-term, duration: 28 days, growth",0.01 mg/L
same,LD50,Bird,> 2000 mg/kg
same,NOEC,Bibionidae,0.0777 mg/L
same,NOAEL,Canidae,2.5 mg/kg-day
same,LEL,Aphidius rhopalosiphi,25 g/ha
